Results from patent US9789082B2, “Somatostatin receptor subtype 4 (SSTR4) agonists” (Centrexion Therapeutics Corporation, priority 2013, dated 2017).
Where two headings read alike, the source gives them in different places.

Experiments:
[1] = molecular target: human Somatostatin 4 receptor (SSTR4) (Homo sapiens (Human), UniProt P31391); experiment: cAMP assay with human somatostatin 4 receptor (hSSTR4 expressing H4 cells); assay type: cell-based
human SSTR4 = human SSTR4 (Homo sapiens (Human), UniProt P31391); experiment: Radioligand binding assay, CHO cell membranes expressing recombinant human SSTR4
Excerpt: (§1) Radioligand Binding Assays
(§2) Method Description for Binding Assays with Human Somatostatin Receptors by Use of CHO Cell Membranes Expressing Recombinant Human SSTR1 or Human SSTR2 or Human SSTR3 or Human SSTR4 or Human SSTR5
(§3) Receptor binding assays refer to a technique in which labeled receptor ligands are used to detect binding to a receptor. In competition experiments test compounds, which are not labeled, compete with the binding side of a labeled ligand. The displacement of the labeled ligand by the test compound leads to a decreased signal.
(§4) For the binding experiments 200 μL of membrane homogenate from one of the following protein amounts is used: hSSTR1 (40 μg/well); hSSTR2 (25 μg/well); hSSTR3 (1.5 μg/well); hSSTR4 (0.5 μg/well); hSSTR5 (25 μg/well). […] The incubation is terminated by filtration with ice cold NaCl 0.9% through polyethyleneimine treated (0.3%) GF/B glass fiber filters using a cell harvester. The protein-bound radioactivity is measured in a suitable reader. The non-specific binding is defined as radioactivity bound in the presence of 1 μM Somatostatin-14 during the incubation period.
(§5) The analysis of the concentration-binding curves is performed by computer-assisted nonlinear least square curve fitting method using the model of one receptor binding site.
(§6) Selectivity data was obtained with the aid of the above described radioligand binding assays.

human SSTR1 = human SSTR1 (Homo sapiens (Human), UniProt P30872); experiment: Radioligand binding assay, CHO cell membranes expressing recombinant human SSTR1
Excerpt: as §1, §2, §3, §4, §5, §6

human SSTR2 = human SSTR2 (Homo sapiens (Human), UniProt P30874); experiment: Radioligand binding assay, CHO cell membranes expressing recombinant human SSTR2
Excerpt: as §1, §2, §3, §4, §5, §6

human SSTR3 = human SSTR3 (Homo sapiens (Human), UniProt P32745); experiment: Radioligand binding assay, CHO cell membranes expressing recombinant human SSTR3
Excerpt: as §1, §2, §3, §4, §5, §6

human SSTR5 = human SSTR5 (Homo sapiens (Human), UniProt P35346); experiment: Radioligand binding assay, CHO cell membranes expressing recombinant human SSTR5
Excerpt: as §1, §2, §3, §4, §5, §6

[2] = Metabolic stability in pooled human liver microsomes (half-life); assay type: in vitro ADME; conditions: pooled human liver microsomes, pH 7.6, 37° C., 1 μM test compound, read-out: Half-life t1/2
Procedure: The metabolic stability of the compounds according to the invention may be investigated as follows:
The metabolic degradation of the test compound is assayed at 37° C. with pooled human liver microsomes. The final incubation volume of 100 μl per time point contains TRIS buffer pH 7.6 at room temperature (0.1 M), magnesium chloride (5 mM), microsomal protein (1 mg/mL) and the test compound at a final concentration of 1 μM. Following a short preincubation period at 37° C., the reactions are initiated by addition of beta-nicotinamide adenine dinucleotide phosphate, reduced form (NADPH, 1 mM), and terminated by transferring an aliquot into solvent after different time points. After centrifugation (10000 g, 5 min), an aliquot of the supernatant is assayed by LC-MS/MS for the amount of parent compound. The half-life is determined by the slope of the semi-logarithmic plot of the concentration-time profile.

[3] = cAMP assay, read-out: SSTR4 agonism EC50

Sequence of human SSTR2 (P30874 whole entry): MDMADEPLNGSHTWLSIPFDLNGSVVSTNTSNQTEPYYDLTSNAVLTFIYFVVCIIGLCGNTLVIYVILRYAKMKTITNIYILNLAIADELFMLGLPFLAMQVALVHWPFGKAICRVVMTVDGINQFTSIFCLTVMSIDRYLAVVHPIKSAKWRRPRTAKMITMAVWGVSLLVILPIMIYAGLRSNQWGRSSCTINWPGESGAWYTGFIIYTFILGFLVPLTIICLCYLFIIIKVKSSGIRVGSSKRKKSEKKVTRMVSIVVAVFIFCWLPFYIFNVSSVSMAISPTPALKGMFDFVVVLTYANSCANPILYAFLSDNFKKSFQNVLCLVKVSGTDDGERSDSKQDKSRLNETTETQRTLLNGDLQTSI
Sequence of human SSTR4 (P31391 whole entry): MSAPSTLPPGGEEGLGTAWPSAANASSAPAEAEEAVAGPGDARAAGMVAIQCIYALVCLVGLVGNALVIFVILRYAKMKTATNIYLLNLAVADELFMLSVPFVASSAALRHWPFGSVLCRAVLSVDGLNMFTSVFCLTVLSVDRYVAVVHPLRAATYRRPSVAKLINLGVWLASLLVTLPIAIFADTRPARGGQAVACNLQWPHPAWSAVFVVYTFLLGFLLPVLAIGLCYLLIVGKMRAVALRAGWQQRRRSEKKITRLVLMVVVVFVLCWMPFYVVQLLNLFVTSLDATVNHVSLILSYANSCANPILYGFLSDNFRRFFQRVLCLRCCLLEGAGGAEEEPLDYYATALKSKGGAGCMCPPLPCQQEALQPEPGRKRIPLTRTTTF
Sequence of human Somatostatin 4 receptor (SSTR4) (P31391 whole entry): as above
Sequence of human SSTR5 (P35346 whole entry): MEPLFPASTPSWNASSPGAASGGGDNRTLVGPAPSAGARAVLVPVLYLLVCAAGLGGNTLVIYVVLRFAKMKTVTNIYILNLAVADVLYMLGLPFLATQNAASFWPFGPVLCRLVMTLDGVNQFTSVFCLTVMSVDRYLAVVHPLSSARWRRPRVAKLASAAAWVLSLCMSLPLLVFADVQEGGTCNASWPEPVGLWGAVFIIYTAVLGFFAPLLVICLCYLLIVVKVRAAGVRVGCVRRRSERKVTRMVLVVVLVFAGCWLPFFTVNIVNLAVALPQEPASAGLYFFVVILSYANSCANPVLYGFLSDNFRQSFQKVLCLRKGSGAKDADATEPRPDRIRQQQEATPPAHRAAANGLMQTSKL
Sequence of human SSTR3 (P32745 whole entry): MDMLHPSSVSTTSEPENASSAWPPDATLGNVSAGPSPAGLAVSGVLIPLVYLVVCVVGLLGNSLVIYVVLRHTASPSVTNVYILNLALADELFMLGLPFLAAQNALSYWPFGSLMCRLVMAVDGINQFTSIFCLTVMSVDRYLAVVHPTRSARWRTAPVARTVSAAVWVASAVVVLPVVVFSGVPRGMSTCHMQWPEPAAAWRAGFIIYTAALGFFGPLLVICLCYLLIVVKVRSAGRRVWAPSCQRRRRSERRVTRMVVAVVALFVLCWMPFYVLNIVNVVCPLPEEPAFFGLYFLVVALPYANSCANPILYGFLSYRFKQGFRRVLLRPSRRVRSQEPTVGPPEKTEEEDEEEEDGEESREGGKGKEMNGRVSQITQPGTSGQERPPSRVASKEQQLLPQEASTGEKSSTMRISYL
Sequence of human SSTR1 (P30872 whole entry): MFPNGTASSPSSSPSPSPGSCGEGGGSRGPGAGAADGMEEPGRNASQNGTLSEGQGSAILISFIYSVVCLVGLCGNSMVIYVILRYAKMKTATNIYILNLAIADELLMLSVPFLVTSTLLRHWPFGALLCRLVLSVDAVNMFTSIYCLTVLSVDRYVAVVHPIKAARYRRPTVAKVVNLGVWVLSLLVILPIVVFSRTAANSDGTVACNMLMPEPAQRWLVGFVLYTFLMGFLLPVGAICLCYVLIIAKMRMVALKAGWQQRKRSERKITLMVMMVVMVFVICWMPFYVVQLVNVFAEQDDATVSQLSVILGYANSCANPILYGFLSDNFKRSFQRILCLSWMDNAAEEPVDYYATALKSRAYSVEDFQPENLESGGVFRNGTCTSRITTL

SMILES | EC50 [1, 3] [µM] | Ki (human SSTR4) [µM] | Ki (human SSTR1) [µM] | Ki (human SSTR2) [µM] | Ki (human SSTR3) [µM] | Ki (human SSTR5) [µM] | half-life at 1 μM [2] [h] | EC50 ([1]; SSTR4 agonism EC50, cAMP assay) [µM]
Cc1ccccc1OCC(C)(C)NC(=O)[C@H]1[C@@H]2CNC[C@@H]21.Cl [Example 40] | 0.005 | 0.0371 | > 9.76 | > 9.6 | > 8.63 | > 9.85 | > 2.17 | –
Cc1cccnc1OCC(C)(C)NC(=O)[C@H]1[C@@H]2CNC[C@@H]21 [Example 47] | 0.0037 | 0.0399 | > 9.15 | > 9.6 | > 8.62 | > 9.85 | > 2.17 | –
Cn1nc(C(C)(C)NC(=O)[C@H]2[C@@H]3CNC[C@@H]32)c2ccccc21 [Example 49] | 0.0004 | 0.0045 | 4.54 | > 9.6 | > 8.62 | > 9.86 | > 2.17 | –
CC(C)(COc1nccc2ccccc12)NC(=O)[C@H]1[C@@H]2CNC[C@@H]21 [Example 56] | 0.0055 | 0.1 | 3.46 | > 9.61 | > 8.63 | > 9.85 | > 2.17 | –
CC(C)(COc1cnccc1C(F)(F)F)NC(=O)[C@H]1[C@@H]2CNC[C@@H]21 [Example 63] | – | 0.0689 | > 7.51 | > 7.88 | > 7.07 | > 8.08 | > 2.17 | 0.0041
Cc1cc2cccnc2c(C(C)(C)NC(=O)[C@H]2[C@@H]3CNC[C@@H]32)n1 [Example 78] | 0.0032 | 0.0972 | 6.64 | > 9.63 | > 8.71 | > 9.86 | > 2.17 | –
Cc1ncc(C(C)(C)NC(=O)[C@H]2[C@@H]3CNC[C@@H]32)c2ccccc12 [Example 80] | 0.0003 | 0.0012 | 0.508 | > 9.63 | > 8.71 | > 9.86 | > 2.17 | –
CC(C)(NC(=O)[C@H]1[C@@H]2CNC[C@@H]21)c1noc2c(F)cccc12 [Example 101] | 0.0012 | 0.0462 | > 9.09 | > 9.6 | > 8.6 | > 9.85 | > 2.17 | –
Cc1cccn2c(C(C)(C)NC(=O)[C@H]3[C@@H]4CNC[C@@H]43)ncc12.Cl [Example 126] | – | 0.003 | 6.63 | > 9.63 | > 8.71 | > 9.86 | > 2.17 | 0.0004
Cc1cccn2c(C(C)(C)NC(=O)[C@H]3[C@@H]4CNC[C@@H]43)nc(C3CC3)c12 [Example 128] | 0.0004 | 0.0076 | 1.1 | > 9.63 | 6.18 | > 9.86 | > 2.17 | –
Cc1nc(C(C)(C)NC(=O)[C@H]2[C@@H]3CNC[C@@H]32)c2ccccc2n1 [Example 138] | 0.0043 | 0.0703 | 7.36 | > 9.63 | > 8.71 | > 9.86 | > 2.17 | –
Cc1nc(C(C)(C)NC(=O)[C@H]2[C@@H]3CNC[C@@H]32)c2cccc(C)c2n1 [Example 148] | – | 0.0323 | 6.67 | > 9.63 | > 8.69 | > 9.77 | > 2.17 | 0.0011
